Measured values reported in ChEMBL document CHEMBL5725340, “BMP inhibitors and methods of use thereof” (2017).

Biological target: T1, Activin receptor type-1 (Homo sapiens, UniProt Q04771)
T1 sequence (Q04771 whole entry): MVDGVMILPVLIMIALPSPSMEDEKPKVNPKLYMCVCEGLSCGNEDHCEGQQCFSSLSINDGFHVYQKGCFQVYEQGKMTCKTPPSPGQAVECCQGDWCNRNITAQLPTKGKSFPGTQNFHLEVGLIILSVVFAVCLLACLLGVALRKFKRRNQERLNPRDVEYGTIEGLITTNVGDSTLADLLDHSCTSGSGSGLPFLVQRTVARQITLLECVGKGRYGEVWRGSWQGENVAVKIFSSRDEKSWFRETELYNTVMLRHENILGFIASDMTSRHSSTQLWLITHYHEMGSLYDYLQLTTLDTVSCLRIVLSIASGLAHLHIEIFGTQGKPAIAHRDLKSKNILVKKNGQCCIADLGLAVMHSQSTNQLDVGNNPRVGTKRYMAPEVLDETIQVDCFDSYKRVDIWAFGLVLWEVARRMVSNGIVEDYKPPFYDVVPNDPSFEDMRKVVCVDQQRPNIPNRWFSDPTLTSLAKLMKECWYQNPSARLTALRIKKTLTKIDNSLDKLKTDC
Assay: ALK1-6 enzymatic assays: Specifically, compounds were assayed using LANCE® Ultra ULight¿ technology (Perkin Elmer) against human ALK1-6 enzymes (ALK1: Life Technologies, ALK2-6: Carna Biosciences). Briefly, ALK enzyme (10 nM) was prepared in kinase buffer (50 mM HEPES, pH 7.5, 10 mM MgCl2, […], 0.005% Tween-20 and 2 mM DTT) and dispensed at 2.5 μL/well into a 1536 well, white, solid …

- IC50: 23 nM
Structure (SMILES): Cc1cc(-c2cnn3cc(-c4ccc(C5CCNCC5)cc4)cnc23)c2ccccc2n1
